We go through three molecules from article PMC4957090, “A novel allele of L-galactono-1,4-lactone dehydrogenase is associated with enhanced drought tolerance through affecting stomatal aperture in common wheat” (Scientific Reports, 2016).

For one series, the target named is T1, TaGLDH-D1 (Triticum aestivum, UniProt W5FUB4).
T1 construct: gene LOC123120310; crude mitochondrial fraction
Description: cytochrome c reduction, absorbance at […] nm, crude mitochondrial fraction. The conditions noted are these: 4 μM L-GalL, 60 μM cytochrome c, 50 mM Tris-HCl pH 8.0, 0.15% Triton X-100; against PEBV:GUS control. The series is classed as biochemical.

For a further series, the target named is T2, TaGLDH-B1 (Triticum aestivum, UniProt W5FJN8).
T2 construct: gene LOC123111215; crude mitochondrial fraction
Described as above. Type of series: biochemical. To be noted: 4 μM L-GalL, 60 μM cytochrome c, 50 mM Tris-HCl pH 8.0, 0.15% Triton X-100; against PEBV:GUS control.

Substrate in the series “purified protein”: O=C1O[C@H]([C@@H](O)CO)[C@@H](O)[C@@H]1O
In words: purified protein. Type of series: biochemical, Triticum aestivum. To be noted: 60 μM cytochrome c, 25 mM Tris-HCl pH 8.0, 25 mM NaCl.

T2 sequence (W5FJN8 entry or part of it): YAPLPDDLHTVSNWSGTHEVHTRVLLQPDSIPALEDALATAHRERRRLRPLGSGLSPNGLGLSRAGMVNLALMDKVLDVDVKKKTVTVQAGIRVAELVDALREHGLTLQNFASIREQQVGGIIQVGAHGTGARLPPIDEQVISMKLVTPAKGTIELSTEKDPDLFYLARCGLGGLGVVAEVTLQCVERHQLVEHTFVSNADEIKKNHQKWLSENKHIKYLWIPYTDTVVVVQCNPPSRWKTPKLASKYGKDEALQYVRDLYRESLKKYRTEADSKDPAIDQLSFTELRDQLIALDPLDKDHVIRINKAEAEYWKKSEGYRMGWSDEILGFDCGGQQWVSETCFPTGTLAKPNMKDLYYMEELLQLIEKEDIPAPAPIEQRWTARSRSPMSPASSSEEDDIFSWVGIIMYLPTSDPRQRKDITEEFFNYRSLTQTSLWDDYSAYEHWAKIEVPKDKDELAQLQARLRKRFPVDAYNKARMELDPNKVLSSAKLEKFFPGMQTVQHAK
T1 sequence (W5FUB4 entry or part of it): as the sequence (W5FJN8 entry or part of it) above, with R133K, T158R, T241A, Y256H, I292L, S395C counted along it

Turning to `O=C1O[C@H]([C@@H](O)CO)[C@@H](O)[C@@H]1O` [L-galactono-1,4-lactone], the “total GLDH activity” value at TaGLDH-D1 is on record as “GLDH activity level was significantly higher in the leaves infected by PEBV:A1, PEBV:B1 or PEBV:D1”; at TaGLDH-B1, “GLDH activity level was significantly higher in the leaves infected by PEBV:A1, PEBV:B1 or PEBV:D1”.

B1: TaGLDH-A1a (wild-type allele of TaGLDH-A1) (Triticum aestivum) (protein)
chain: YAPLPDDLHTVSNWSGTHEVHTRVLLQPDSIPALEDALATAHRERRRLRPLGSGLSPNGLGLSRAGMVNLALMDKVLDVDVKKKTVTVQAGIRVAELVDALSKHGLTLQNFASIREQQVGGIIQVGAHGTGARLPPIDEQVISMKLVTPAKGTIELSREKNPDLFYLARCGLGGLGVVAEVTLQCVERHQLVEHTFVSNADEIKKNHQNWLSENKHIKYLWIPYTDTVVVVQCNPPSRWKTPKLASKYVKDEALQHVRDLYRESLKKYRTEADSKDPAIDQLSFTELRDQLLALDPLDKDHVIRINKAEAEYWKKSEGYRMCWSDEILGFDCGGQQWVSETCFPTGTLAKPNMKDLYYMEELLQLIEEEDIPAPAPIEQRWTAHSRSPMSPASSSEEDDIFSWVGIIMYLPTSDPRQRKDITEEFFNYRSLTQTSLWDDYSAYEHWAKIEVPKDKDELAQLQARLRKRFPVDAYNKARMELDPNKVLSSAKLEKFFPGMQTVQHAR
notes: without first 78 residues (putative mitochondrial targeting peptide), N-terminal His tag, pET-30a, E. coli
By Km is commonly meant the substrate concentration at which the rate is half of its maximum. Take B1: the Km in the series “purified protein” is 61.0 ± 5.4 µM.

B2: TaGLDH-A1a (wild-type allele of TaGLDH-A1) (Triticum aestivum; DEL501-501) (protein)
chain: YAPLPDDLHTVSNWSGTHEVHTRVLLQPDSIPALEDALATAHRERRRLRPLGSGLSPNGLGLSRAGMVNLALMDKVLDVDVKKKTVTVQAGIRVAELVDALSKHGLTLQNFASIREQQVGGIIQVGAHGTGARLPPIDEQVISMKLVTPAKGTIELSREKNPDLFYLARCGLGGLGVVAEVTLQCVERHQLVEHTFVSNADEIKKNHQNWLSENKHIKYLWIPYTDTVVVVQCNPPSRWKTPKLASKYVKDEALQHVRDLYRESLKKYRTEADSKDPAIDQLSFTELRDQLLALDPLDKDHVIRINKAEAEYWKKSEGYRMCWSDEILGFDCGGQQWVSETCFPTGTLAKPNMKDLYYMEELLQLIEEEDIPAPAPIEQRWTAHSRSPMSPASSSEEDDIFSWVGIIMYLPTSDPRQRKDITEFFNYRSLTQTSLWDDYSAYEHWAKIEVPKDKDELAQLQARLRKRFPVDAYNKARMELDPNKVLSSAKLEKFFPGMQTVQHAR
notes: as for B1
Take B2: the Km in “purified protein” (natural allele TaGLDH-A1b (Glu501 absent), cDNA from cv. Kashibaipi) is 181.0 ± 67.1 µM.
